Measured values: patent publication US20220017478A1, “2-BENZOYLAMINOBENZAMIDE DERIVATIVES AS BCL-3 INHIBITORS” (University College Cardiff Consultants Limited, priority 2013, published 2022)

Legend:
NF-κB activity [1] = assay: NF-κB luciferase reporter assay in HEK-293 p52 overexpressing cells; assay type: cell-based; settings: Homo sapiens, HEK293
Experimental: (§1) For NF-κB luciferase assays, cells were seeded into clear bottom black 96-well plates (Corning Inc., Lowell, US) in antibiotic free culture media in appropriate density. After 24 hrs, cells were transfected with 10 ng of 3×κB luciferase plasmid and 10 ng of pcDNA3.1-Lacl plasmid per well. Empty pcDNA3.1 plasmid was also included to normalize the total weight of DNA transfected to 100 ng. For positive and negative controls respectively, 10 ng of pGL3control or pGL3basic were transfected in place of 3×KB luciferase plasmid. Transfection was carried out using Lipofectamine LTX reagents (Invitrogen, Paisley, UK).
(§2) After 48 hrs post-transfection with luciferase reporter plasmid, the media was aspirated and cells were lyzed using 50 μl/well of Glo-lysis buffer (Promega, Southampton, UK). The plate was left on a rocker for 20 min to facilitate complete cell lysis. […] Subsequently, 30 μl/well of Bright-Glo luciferase substrate (Promega, Southampton, UK) was added to the original plate and asses immediately for luminescence activity. The luminescence produced from either reaction was read using a Flurostar Optima plate reader (BMG tabtech, Bucks, UK).
(§3) The effect of Compound 1a on NF-κB activity was determined by NF-κB luciferase assay in MDA-MB-231 and HEK-293 cells overexpressing Bcl-3 and HEK-293 cells overexpressing p52. […]

NF-κB activity [2] = assay: NF-κB luciferase reporter assay in HEK-293 cells overexpressing Bcl-3; assay type: cell-based; settings: Homo sapiens, HEK293
Experimental: as §1, §2, §3

MCF-10A cells = assay: Cell Titre Blue viability assay, MCF-10A; assay type: cell-based, human; settings: Homo sapiens, 24 hrs, extrapolated with GraphPad, read-out: IC50 cell viability, extrapolated from the dose-response curve
Experimental: (§4) The viability of cells at experimental endpoints for particular assays was determined using the Cell Titre Blue reagent (Promega, Southampton, UK). This reagent measures the cellular metabolic activity using resazurin as an indicator dye. Viable cells, therefore metabolically active, will reduce resazurin into highly fluorescent resofurin. The resulting fluorescence levels are measured and indicate cell viability.
(§5) Cells were plated at low confluency into 96 well plates in 100 μl of complete growth media in triplicates and were incubated at 37° C. in 5% CO2 for the desired test exposure period. For each 100 μl of media in 96 well plates, 20 μl Cell Titre Blue reagent was added followed by incubation for an hour at 37° C. in 5% CO2. Fluorescence was then measured by setting excitation/emission wavelengths to 560/590 nm on a Flurostar Optima plate reader (BMG tabtech, Bucks, UK).
(§6) To compare the toxicity in tumorigenic as well as in non-tumorigenic breast cancer cells, we selected MCF-10A as a non-tumorigenic human breast cancer cell line and MDA-MB-231 and SKBR3 as cell models of tumorigenic human breast cancer cell line.
(§7) Cell toxicity was evaluated using the Cell Titre Blue viability assay over a range of molarities for 24 hrs.

[3] = Cell Titre Blue viability assay, MCF-10A; assay type: cell-based, human; settings: human, MCF-10A cells, 1 mM, read-out: cell viability compared to DMSO control (100%)
Experimental: as §4, §5, §6, §7

MDA-MB-231 cells = assay: Cell Titre Blue viability assay, MDA-MB-231; settings: Homo sapiens, MDA-MB-231, 24 h, read-out: IC50 cell viability, extrapolated from the dose-response curve
Experimental: as §4, §5, §7
Selected compounds were dissolved in DMSO and diluted to a highest concentration of 10 μM (0.1% DMSO). In all assays, a DMSO control was always used. Selected compounds were tested for cell toxicity in HEK-293 and MDA-MB-231 cells before being used in cell-based assays. Cell toxicity was evaluated using the Cell Titre Blue viability assay over a range of molarities for 24 hrs

[4] = Cell Titre Blue viability assay, SKBR3; assay type: cell-based, human; settings: human, SKBR3 cells; SKBR3, 1 mM, 24 hrs; read-out: cell viability compared to DMSO control (100%)
Experimental: as §4, §5, §6, §7

SKBR3 cells = assay: Cell Titre Blue viability assay, SKBR3; assay type: cell-based, human; settings: Homo sapiens, SK-BR-3; SKBR3, 24 hrs, extrapolated with GraphPad; read-out: IC50 cell viability, extrapolated from the dose-response curve
Experimental: as §4, §5, §6, §7

IC50 (NF-κB activity [1]): 0.211 µM
IC50 (NF-κB activity [2]): 0.16 µM
IC50 (MDA-MB-231 cells): 2700 µM
IC50 (SKBR3 cells): 1370 µM
SMILES: O=C(Nc1ccccc1C(=O)NCCN1CCOCC1)c1ccccc1F [Compound 1a, 2-[(2-fluorobenzoyl)amino]-N-(2-morpholin-4-ylethyl)benzamide]
IC50 (MCF-10A cells): 14900 µM
viability at 24 h, 1000 µM [3]: 96%
viability at 24 h, 1 mM [4]: 57%
